Test results as given in patent US12605352B2, “Compositions and methods for inhibiting blood cancer cell growth” (UNIVERSITY OF NEW BRUNSWICK, priority 2019, dated 2026).

Legend:
Type in all cases: cell-based
[1] = system: KMM-1 human myeloma cells; experiment: Cell growth inhibition (cell viability assay) on IMiD-resistant human myeloma cells KMM-1; conditions: for anti-myeloma cell growth inhibition (in words): 10 uM, KMM-1, listed in decreasing order of bioactivity; for inhibition at 10 µM: Homo sapiens, KMM-1 cells, 48 hr treatment
Source text: (§1) In certain embodiments of the present invention, the remarkable cancer cell growth inhibitory potential of caffeic acid phenpropyl ester analogues was established by treating human leukemia, myeloma and lymphoma cell lines with the analogues of Table 1 and measuring the viability of blood cancer cells by cell viability assay. The efficacy of the analogues of Table 1 in comparison to a standard chemotherapy drug was confirmed.
With reference to Table 1, Table 2 and FIG. 1, FIG. 1 is a bar graph depicting cell growth inhibitory effect of caffeic acid phenpropyl ester (GL8) analogues at 10 uM concentration according to certain aspects of the present disclosure on human myeloma cells (Cell line: KMM-1; 48 hr treatment).

[2] = system: OCI-LY3 human lymphoma cells; experiment: Cell growth inhibition (cell viability assay) on IMiD-resistant human lymphoma cells OCI-LY3; conditions: for inhibition at 1 µM / inhibition at 10 µM: Homo sapiens, OCI-LY3 cells, 48 hr treatment; for inhibition at 10 µM / anti-lymphoma cell growth inhibition (in words): 10 uM; for anti-lymphoma cell growth inhibition (in words): OCI-LY3, listed in decreasing order of bioactivity
Source text: as §1
With reference to Table 3 and FIG. 2, FIG. 2 is a bar graph depicting cell growth inhibitory effect of caffeic acid phenpropyl ester (GL8) analogues according to certain aspects of the present disclosure at 1 uM concentration on human lymphoma cells (Cell line: OCI-LY3; 48 hr treatment).
With reference to Table 1, Table 4 and FIG. 3, FIG. 3 is a bar graph depicting cell growth inhibitory effect of caffeic acid phenpropyl ester (GL8) analogues according to certain aspects of the present disclosure at 10 uM concentration on human lymphoma cells (Cell line: OCI-LY3; 48 hr treatment).

[3] = system: HL-60 human leukemia cells; experiment: Cell growth inhibition (cell viability assay) on human leukemia cells HL-60; conditions: HL-60 cells, 48 hr treatment
Source text: as §1
With reference to Table 5 and FIG. 4, FIG. 4 is a bar graph depicting cell growth inhibitory effect of caffeic acid phenpropyl ester (GL8) analogues at 10 uM concentration according to certain aspects of the present disclosure on human leukemia cells (Cell line: HL-60; 48 hr treatment).

SMILES	anti-myeloma cell growth inhibition (in words) [1]	inhibition at 10 µM [1] [%]	inhibition at 1 µM [2] [%]	inhibition at 10 µM [2] [%]	inhibition at 10 µM [3] [%]	anti-lymphoma cell growth inhibition (in words) [2]
O=C(/C=C/c1ccc(O)c(O)c1)OCC#Cc1ccccc1 [Molecule J91, (E)-3-phenylprop-2-ynyl 3-(3,4-dihydroxyphenyl)acrylate]	superior anti-myeloma cell growth inhibition	31.7	0.3	39.8	32.4	–
O=C(/C=C/c1ccc(O)c(O)c1)Oc1ccccc1 [GL9, (E)-phenyl 3-(3,4-dihydroxyphenyl)acrylate]	–	26	26.3	44.7	6.8	–
O=C(/C=C/c1ccc(O)cc1O)OCCCc1ccccc1 [MT72, (E)-3-phenylpropyl 3-(2,4-dihydroxyphenyl)acrylate]	–	-0.2	3.3	-4.5	-8.2	–
O=C(/C=C/c1ccc(O)c(O)c1)OCCCc1ccccc1 [GL8, caffeic acid phenpropyl ester, reference compound]	–	28.2	-4.6	78.7	36	–
O=C(/C=C/c1ccc(O)c(O)c1)OCCc1ccccc1 [CAPE, Caffeic acid (3,4-dihydroxycinnamic acid) phenethyl ester, reference compound]	–	14.7	-24.3	51.8	-6.8	–
COc1cc(/C=C/C(=O)OCCCc2ccccc2)ccc1O [MT50, (E)-3-phenylpropyl 3-(4-hydroxy-3-methoxyphenyl)acrylate]	–	13.6	-0.7	1.5	13.4	–
O=C(/C=C/c1ccc(O)c(O)c1)CCCc1ccccc1 [Molecule J205, (E)-1-(3,4-dihydroxyphenyl)-6-phenylhex-1-en-3-one]	–	22.2	18.7	76.6	60.7	–
Oc1ccc(/C=C/COCCCc2ccccc2)cc1O [Molecule J229, 4-((E)-3-(3-phenylpropoxy)prop-1-enyl)benzene-1,2-diol]	superior anti-myeloma cell growth inhibition	49.4	2.3	78.2	54.3	superior anti-lymphoma cell growth inhibition
O=C(/C=C/c1cccc(O)c1O)OCCCc1ccccc1 [As25, (E)-3-phenylpropyl 3-(2,3-dihydroxyphenyl)acrylate]	–	15.1	69	84	13.6	superior anti-lymphoma cell growth inhibition
O=C(/C=C/c1ccc(O)c(O)c1)NCCCc1ccccc1 [LL28, (E)-3-(3,4-dihydroxypheny1)-N-(3-phenylpropyl)acrylamide]	–	15.8	-9.5	36	8.7	–
